This series has as its system endometrium. From the text:
Efforts were made to recruit an equal number of women with high endometrial thickness (>7 mm) and low endometrial thickness (<7 mm). On the day of surgery, the subject underwent a vaginal ultrasound, to re-measure the endometrial thickness, and hysteroscopy, to visualize the uterine cavity and the endometrium.
After surgery, the extracted uterus was immediately evaluated by the study pathologist for gross pathology and silver nitrate coverage of the endometrium and was later subjected to pathology (macroscopic analyses of the intra-uterine cavity and microscopic analyses of the multiple sections of the uteri) histopathological evaluations to define the extent of active material endometrium coverage and endometrial ablation.

The structures appear in SMILES notation.

The results in this text go back to patent publication US12161829B2 (OCON MEDICAL LTD., priority 2020, dated 2024).

Regarding `O=[N+]([O-])[O-].[Ag+]` [silver nitrate], the “Staining of / spillage via the fallopian tubes” value (30 minutes in uterus, extracted uterus) is reported as “No staining of the fallopian tubes”. For the same compound, where the note is “histology”, the Cervix findings entry is “superficial silver nitrate staining, with no damage to the columnar epithelium and no pathological findings”. Further, the Cauterization effect entry (overall conclusion) is “elicited the expected cauterization effect”.
